Experimental data from patent US9403758B2, “Antibacterial agents” (Achaogen, Inc., priority 2012, dated 2016).
In brackets after ≈: the same amount, converted by molar mass.

Assays:
Type in all cases: cell-based
[1] = tested on: Escherichia coli ATCC25922; assay: MIC broth microdilution, Escherichia coli ATCC25922 (AECO); details: 35° C., 18-24 hr, read-out: Minimum Inhibitory Concentrations (MICs) AECO
Method: (§1) Bacterial isolates were cultivated from −70° C. frozen stocks by overnight passages at 35° C. in ambient air on Mueller-Hinton agar (Beckton Dickinson, Franklin Lakes, N.J.). Clinical isolates tested were obtained from various geographically diverse hospitals in the US and abroad (Focus Diagnostics, Herndon, Va. and JMI, North Liberty, Iowa). Quality control strains were from the American Type Culture Collection (ATCC; Rockville, Md.).
(§2) Minimum Inhibitory Concentrations (MICs) were determined by the broth microdilution method in accordance with the Clinical and Laboratory Standards Institute (CLSI) guidelines. In brief, organism suspensions were adjusted to a 0.5 McFarland standard to yield a final inoculum between 3×10^5 and 7×10^5 colony-forming units (CFU)/mL. Drug dilutions and inocula were made in sterile, cation adjusted Mueller-Hinton Broth (Beckton Dickinson). An inoculum volume of 100 μL was added to wells containing 100 μL of broth with 2-fold serial dilutions of drug. All inoculated microdilution trays were incubated in ambient air at 35° C. for 18-24 hr. Following incubation, the lowest concentration of the drug that prevented visible growth (OD600 nm<0.05) was recorded as the MIC. Performance of the assay was monitored by the use of laboratory quality-control strains and levofloxacin, a compound with a defined MIC spectrum, in accordance with CLSI guidelines. Typically, compounds of the present invention have MIC values of 0.03-32 μg/mL.

[2] = tested on: Klebsiella pneumonia ATCC43816; assay: MIC broth microdilution, Klebsiella pneumonia ATCC43816 (AKPN); details: Klebsiella pneumoniae, 35° C., 18-24 hr, read-out: Minimum Inhibitory Concentrations (MICs) AKPN
Method: as §1, §2

[3] = tested on: Pseudomonas aeruginosa ATCC27853; assay: MIC broth microdilution, Pseudomonas aeruginosa ATCC27853 (APAE); details: 35° C., 18-24 hr, read-out: Minimum Inhibitory Concentrations (MICs) APAE
Method: as §1, §2

Structure (SMILES) | MIC [1] [µg/mL] | MIC [2] [µg/mL] | MIC [3] [µg/mL]
CSC(C)(C)[C@H](NC(=O)c1ccc(C#CC#C[C@H]2C[C@@H]2CO)cc1)C(=O)NO (stereo in doubt) [Compound 3, N—((R)-1-(hydroxyamino)-3-methyl-3-(methylthio)-1-oxobutan-2-yl)-4-(((trans)-2-(hydroxymethyl)cyclopropyl)buta-1,3-diynyl)benzamide] | ≤ 1 | ≤ 1 | ≤ 1
O=C(NO)c1cc(-c2ccc(C#CC#C[C@@H]3C[C@H]3CO)cc2)ccn1 (relative stereo) [Compound 2, N-hydroxy-4-(4-(((trans)-2-(hydroxymethyl)cyclopropyl)buta-1,3-diynyl)phenyl)picolinamide] | ≤ 1 | 8 to 16 (≈ 24.1 to 48.1 µM) | 8 to 16 (≈ 24.1 to 48.1 µM)
CNC(=O)C(NC(=O)c1ccc(C#CC#C[C@@H]2C[C@H]2CO)cc1)C(=O)NO (stereo partly drawn) [Compound 8] | ≤ 1 | ≤ 1 | ≤ 1
CC(C)(N)[C@H](NC(=O)c1ccc2cc(C#CC3C[C@@H]3CO)ccc2c1)C(=O)NO (stereo partly drawn) [Compound 6, N—((S)-3-amino-1-(hydroxyamino)-3-methyl-1-oxobutan-2-yl)-6-(((trans)-2-(hydroxymethyl)cyclopropyl)ethynyl)-2-naphthamide] | 1 to 8 (≈ 2.53 to 20.2 µM) | 8 to 16 (≈ 20.2 to 40.5 µM) | ≤ 1
C[S+]([O-])C(C)(C)[C@H](NC(=O)c1ccc(C#CC#C[C@H]2C[C@@H]2CO)cc1)C(=O)NO (stereo in doubt) [Compound 4, N-((2R)-1-(hydroxyamino)-3-methyl-3-(methylsulfinyl)-1-oxobutan-2-yl)-4-(((trans)-2-(hydroxymethyl)cyclopropyl)buta-1,3-diynyl)benzamide] | ≤ 1 | 8 to 16 (≈ 19.2 to 38.4 µM) | ≤ 1
CC(CCc1ccc(C#CC#C[C@H]2C[C@@H]2CO)cc1)(C(=O)NO)S(C)(=O)=O (relative stereo) [Compound 9, N-hydroxy-4-(4-(((trans)-2-(hydroxymethyl)cyclopropyl)buta-1,3-diynyl)phenyl)-2-methyl-2-(methylsulfonyl)butanamide] | ≤ 1 | 1 to 8 (≈ 2.57 to 20.5 µM) | ≤ 1
CC(C)([C@H](NC(=O)c1ccc(C#CC#C[C@H]2C[C@@H]2CO)cc1)C(=O)NO)S(C)(=O)=O (stereo in doubt) [Compound 5, N—((R)-1-(hydroxyamino)-3-methyl-3-(methylsulfonyl)-1-oxobutan-2-yl)-4-(((trans)-2-(hydroxymethyl)cyclopropyl)buta-1,3-diynyl)benzamide] | ≤ 1 | ≤ 1 | ≤ 1
CC(C)(N)[C@H](NC(=O)c1cc2ccc(C#CC3C[C@H]3CO)cc2s1)C(=O)NO (stereo partly drawn) [Compound 7, N—((S)-3-amino-1-(hydroxyamino)-3-methyl-1-oxobutan-2-yl)-6-(((trans)-2-(hydroxymethyl)cyclopropyl)ethynyl)benzo[b]thiophene-2-carboxamide] | 1 to 8 (≈ 2.49 to 19.9 µM) | 8 to 16 (≈ 19.9 to 39.9 µM) | 1 to 8 (≈ 2.49 to 19.9 µM)
O=C(NO)c1cc(-c2ccc(C#CC#C[C@@H]3C[C@H]3CO)cc2)nc2ccncc12 (relative stereo) [Compound 1, N-hydroxy-2-(4-(((trans)-2-(hydroxymethyl)cyclopropyl)buta-1,3-diynyl)phenyl)-1,6-naphthyridine-4-carboxamide] | ≤ 1 | ≤ 1 | 8 to 16 (≈ 20.9 to 41.7 µM)
